Measured values: US10849875B2, “Cancer specific lipid targeted peptidomimetics” (University of Houston System, priority 2015, dated 2020)
Positions of bridges follow the written chain, without caps; N, C: chain ends. Non-standard residues stand in square brackets, D forms with d. Residues, ends and D or L forms follow the SMILES beside them. Chains are numbered I, II in the order given. Gly(N-piperonyl) = O=C(O)CNCc1ccc2c(c1)OCO2; N(4-MeOBn)Gly = COc1ccc(CNCC(=O)O)cc1; Nrpe = C[C@@H](NCC(=O)O)c1ccccc1; Nlys = NCCCCNCC(=O)O

Tests used:
HCC4017 cells = test: MTS cell viability assay; format: cell-based, human
Experimental: After confirming the binding and specificity of the PPS1 on HCC4017 lung cancer cells, whether this compound has any biological effects on HCC4017 lung cancer cells was assayed. The gold standard cell viability (MTS) assay was used. […] On one of the repetitive experiments of this assay, Cystinylated-PPS1 compound was included (FIG. 6A). This was the intermediate compound used to attach the FITC-malemide for binding assays described previously. […] The only difference between this Cystinylated-PPS1 and the original PPS1 compound was just a single cysteine amino acid at the C-terminal. It was difficult to rationalize having a single amino acid residue at the terminus of the sequence causing a large difference of activity, other possibilities were considered. Cysteine has sulfur (—SH) group on the side chain and two of these can easily form disulfide bonds. […]
A homo-dimeric version of PPS1 was synthesized. […] The resulting dimeric version of the PPS1 compound, PPS1D1 (FIG. 6C), and the analogous dimeric versions of scrambled PC2, PC2D1 (FIG. 6E), and control compound C462, PC462D1 (FIG. 82), were then evaluated for activity. […] As described above, HCC4017 cells and HBEC30kt and HBEC3kt cells were grown in 96 well plates on day 1, treated serial dilutions of PPS1, PPS1D1, C462 and C462D1 on day 2, and viable cell count was measured using MTS reagent on day 3. […]

[1] = test system: HCC4017, H460, H358, H441, H1819, H1993, H2122, MD-MB-231 and PC3 cells; test: In vitro cancer cell killing (MTS cell viability assays and FACS studies); format: cell-based, human; details: lung, breast and prostate cancer cells
From the text: Various derivatives of PPS1 have been developed that have similar and improved activities. FIGS. 15-22, 36-51.

SMILES: COc1ccc(CN(CC(=O)N(CCCCN)CC(=O)N[C@@H](CCCCN)C(=O)N[C@H](CCCCN)C(=O)N[C@@H](CCSC)C(=O)NCCCC[C@H](NC(=O)[C@H](CCSC)NC(=O)[C@@H](CCCCN)NC(=O)[C@H](CCCCN)NC(=O)CN(CCCCN)C(=O)CN(Cc2ccc(OC)cc2)C(=O)CN(C(=O)CN(Cc2ccc3c(c2)OCO3)C(=O)CN[C@H](C)c2ccccc2)[C@H](C)c2ccccc2)C(N)=O)C(=O)CN(C(=O)CN(Cc2ccc3c(c2)OCO3)C(=O)CN[C@H](C)c2ccccc2)[C@H](C)c2ccccc2)cc1 [PPS1D1] (I: H-[Nrpe][Gly(N-piperonyl)][Nrpe][N(4-MeOBn)Gly][Nlys]K[dK]MK-NH2 / II: H-[Nrpe][Gly(N-piperonyl)][Nrpe][N(4-MeOBn)Gly][Nlys]K[dK]M; amide I:9-II:C; N-terminus assumed)
- activity at different times post treatment (HCC4017 cells; HCC4017, tested at 6, 12 and 24 hours post treatment): somewhat similar
- IC50 (HCC4017 cells; MTS, HCC4017): ~10 µM
- in vitro cancer cell killing activity [1]: strong in vitro cancer cell killing activity
